{"source": "patent US9706790B2", "about": "“Compounds, compositions, and methods for reducing or eliminating bitter taste” (CHROMOCELL CORPORATION, priority 2011, dated 2017)", "system": "bitter taste of KCl", "experiment": "KCl Latin Square-2AFC taste test, macaroni and cheese (chew and spit)", "format": "in vivo, humans", "details": "KCl 5.7% in cheese powder (0.34% in final prepared food product); for # of panelists discerning decrease in bitter taste/# of panelists tested: versus KCl standard", "description": "The taste test panelists used in the following examples were screened based upon and selected for their ability to perceive the bitter taste associated with potassium chloride. Only panelists capable of perceiving bitter taste participated in the following taste tests.\nThe effect of the test compounds on the perception of the bitter taste of KCl in prepared food products in humans was evaluated using a “chew and spit” test using a Latin Square-2AFC testing method as follows.\nEdible KCl food products (“KCl test food product”) were prepared according to the following instructions. 6 cups water were boiled in stainless steel pot to a ‘rolling’ boil. Once a rolling boil was achieved, 166.5 grams of pasta were added to the boiling water. The pasta was stirred briefly to prevent the pasta from sticking to the pot. The pasta was boiled for 8.5 minutes and drained in a stainless steel colander. The pasta was shaken (approximately 15 times back and forth and twice up and down) to remove excess water. The drained pasta was returned to the stainless steel pot, and 56 grams (4 tablespoons) Land O'Lakes™ unsalted butter was added to the hot pasta. When the unsalted butter was half melted, 39.5 grams cheese powder (containing the KCl) was added in the center of the pasta. Separately, test compound was diluted in 1 ml of propylene glycol (PG; alternatively the test compound may also be diluted in a milk stock solution or a butter oil stock solution) and the resulting solution added to 99 ml of milk. 63 ml of the PG/milk solution was poured around cheese powder and gently folded into the pasta with a stainless steel spoon in order to avoid cheese clumping on spoon. KCl standards were similarly prepared by adding milk without any test compound.\nThe panelists tasted portions by chewing and spitting. In order to eliminate any effects of sample order, a complete Latin Square design was employed so that each possible order of sample presentation was utilized across subjects. Each sample was tested in several discrete taste test experiments. […]"}
{"compound": "C/C(=C\\CO)CCCC(C)CCCC(C)CCCC(C)C", "note": "(stereo not drawn) [Compound 5]", "values": [{"measurement": "Conc. at Which At Least 50% of Panelists Discerned Decrease in Bitter Taste", "value": 10, "unit": "ppm"}, {"measurement": "# of panelists discerning decrease in bitter taste/# of panelists tested", "setting": "compound at 10 ppm", "value": "10 (28/50)"}, {"measurement": "# of panelists discerning decrease in bitter taste/# of panelists tested", "setting": "compound at 20 ppm", "value": "20 (20/49)"}]}
